This experiment concerns the target D(1A) dopamine receptor (Canis familiaris). Kind of experiment: Ability to inhibit the binding of [3H]-SCH- 23390 to canine striatal membrane.

For `CN1CCc2cc(I)c(O)cc2C(c2ccc(N=[N+]=[N-])cc2)C1` (stereo unspecified) [5-(4-Azido-phenyl)-8-iodo-3-methyl-2,3,4,5-tetrahydro-1H-benzo[d]azepin-7-ol], the dissociation constant (Kd) (as a rule, the concentration at which binding is half-saturated) was 0.15 nM.

Values taken from BindingDB's records for doi:10.1021/jm00119a003 (Northeastern University, 1988).
